The record followed here is patent US10392401B2, “Crystal form A of compound and preparation method thereof” (SHANGHAI INSTITUTE OF MATERIA MEDICA, CHINESE ACADEMY OF …, priority 2015, dated 2019).

Data set [1] has as its target DPP IV (Homo sapiens, UniProt P27487). As to the kind of experiment: DPP IV inhibitory activity and selectivity in vitro. Type of data set: biochemical.
Data set [2] concerns the target T1, DPP IV (Mus musculus, UniProt P28843).
T1 construct: from tissue; host or cells: mouse plasma
As to the kind of experiment: Inhibition of DPP IV activity in normal mice plasma. It counts as in vivo.

For data set [3], the target named is T2, DPP IV (Rattus norvegicus, UniProt P14740).
T2 construct: from tissue; host or cells: rat plasma
T2 sequence (P14740 37-767 limits assumed): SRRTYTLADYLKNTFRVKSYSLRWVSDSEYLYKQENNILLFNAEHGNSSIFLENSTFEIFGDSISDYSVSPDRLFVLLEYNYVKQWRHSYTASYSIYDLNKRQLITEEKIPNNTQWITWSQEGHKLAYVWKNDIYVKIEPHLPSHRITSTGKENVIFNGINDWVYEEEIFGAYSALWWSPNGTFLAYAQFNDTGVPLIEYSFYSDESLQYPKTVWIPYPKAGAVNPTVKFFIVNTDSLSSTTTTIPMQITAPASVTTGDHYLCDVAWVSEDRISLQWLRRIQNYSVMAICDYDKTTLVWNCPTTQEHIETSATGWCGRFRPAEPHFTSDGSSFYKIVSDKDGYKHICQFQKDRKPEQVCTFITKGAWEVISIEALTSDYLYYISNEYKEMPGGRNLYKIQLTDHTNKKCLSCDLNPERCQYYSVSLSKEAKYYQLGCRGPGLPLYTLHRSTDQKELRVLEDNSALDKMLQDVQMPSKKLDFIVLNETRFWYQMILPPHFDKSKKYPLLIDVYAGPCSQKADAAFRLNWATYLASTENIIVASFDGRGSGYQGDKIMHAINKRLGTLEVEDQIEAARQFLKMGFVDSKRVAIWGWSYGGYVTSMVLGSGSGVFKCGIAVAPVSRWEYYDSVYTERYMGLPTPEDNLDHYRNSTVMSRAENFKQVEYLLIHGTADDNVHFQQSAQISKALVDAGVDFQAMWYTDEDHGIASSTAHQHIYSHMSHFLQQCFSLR
In words: Inhibition of DPP IV activity in rat plasma. It counts as in vivo.

Another data set relates to normal ICR mice. In words: Oral glucose tolerance in normal ICR mice. It counts as in vivo.
The subject of another data set is ob/ob mice. In words: Chronic administration to ob/ob mice, fasting blood glucose. Type of data set: in vivo.
Data set [4] concerns gene-deficient db/db mice. In words: Chronic administration to gene-deficient db/db mice, fasting blood glucose. Type of data set: in vivo.
Data set [5] is described as follows: Pharmacokinetic study in rats. Type of data set: in vivo. Conditions: versus alogliptin.
Data set [6] can be described thus: Pharmacokinetic study in dogs. Type of data set: in vivo. As to conditions: versus alogliptin.
The subject of the next data set is ICR mice. In words: Acute toxicity test in ICR mice. It counts as in vivo. As to conditions: 300 mg/kg group.
Another data set has as its system Rat. As to the kind of experiment: Subacute toxicity test in Rat. It counts as in vivo. As to conditions: oral, 150 mg/kg group.
The nature of data set [7]: Hygroscopicity analysis (DVS). It counts as physicochemical. The protocol:
Dynamic vapor absorption (DVS) test/water absorption test is conducted by rapidly measuring the increase and loss of the moisture in the sample caused by flow carrier gas with setted relative humidity (RH). The sample is placed on a digital microbalance with high sensitivity and high stability at a self-suspension state, and then by measuring the increase/decrease of the material mass so as to measure the adsorption/desorption of water vapor, thereby determining the hygroscopicity of the sample.
In the present invention, the test parameters for DVS are as follows: Instrument type: SMS DVS Intrinsic; Non-hydrate: 0 to 95%-0% RH; Temperature: 25° C.; Hydrate: 40 to 95%-0% RH; Temperature: 25° C.

Data set [8] in a line: Oral hypoglycemic activity compared with amorphous powder. Type of data set: in vivo. As to conditions: orally administered; versus amorphous powder.
Data set [9] is described as follows: Solubility compared with amorphous powder. Type of data set: physicochemical. As to conditions: versus amorphous powder.
The nature of data set [10]: Oral absorption and bioavailability compared with amorphous powder. Type of data set: in vivo. Conditions: versus amorphous powder.
A short description of data set [11]: Stability of the crystal form. It counts as physicochemical.
Setting [12] is: versus positive control alogliptin.

Read-outs that look alike come from different tables or passages of the source.

DPP IV (Homo sapiens, UniProt P27487), sequence (P27487 whole entry, species assumed): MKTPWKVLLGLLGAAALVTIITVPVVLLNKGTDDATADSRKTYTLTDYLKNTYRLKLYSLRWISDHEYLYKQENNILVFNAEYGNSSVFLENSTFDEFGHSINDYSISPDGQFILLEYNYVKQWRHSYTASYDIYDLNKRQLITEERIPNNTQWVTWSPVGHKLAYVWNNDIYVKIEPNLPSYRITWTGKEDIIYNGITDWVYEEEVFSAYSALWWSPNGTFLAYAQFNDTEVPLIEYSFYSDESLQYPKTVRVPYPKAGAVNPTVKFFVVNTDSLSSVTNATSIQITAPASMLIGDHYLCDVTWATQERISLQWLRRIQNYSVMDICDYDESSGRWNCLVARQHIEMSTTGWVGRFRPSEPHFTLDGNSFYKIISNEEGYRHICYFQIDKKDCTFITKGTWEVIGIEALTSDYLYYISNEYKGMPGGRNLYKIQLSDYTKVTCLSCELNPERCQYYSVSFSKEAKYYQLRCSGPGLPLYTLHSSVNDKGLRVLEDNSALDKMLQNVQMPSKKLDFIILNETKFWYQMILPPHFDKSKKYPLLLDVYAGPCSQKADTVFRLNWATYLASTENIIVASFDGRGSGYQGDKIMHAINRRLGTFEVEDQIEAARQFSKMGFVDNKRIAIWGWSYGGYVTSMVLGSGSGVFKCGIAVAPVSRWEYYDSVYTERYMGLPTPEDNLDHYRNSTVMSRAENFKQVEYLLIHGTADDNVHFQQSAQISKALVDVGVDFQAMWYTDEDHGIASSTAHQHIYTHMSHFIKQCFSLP
T1 sequence (P28843 37-760 limits assumed): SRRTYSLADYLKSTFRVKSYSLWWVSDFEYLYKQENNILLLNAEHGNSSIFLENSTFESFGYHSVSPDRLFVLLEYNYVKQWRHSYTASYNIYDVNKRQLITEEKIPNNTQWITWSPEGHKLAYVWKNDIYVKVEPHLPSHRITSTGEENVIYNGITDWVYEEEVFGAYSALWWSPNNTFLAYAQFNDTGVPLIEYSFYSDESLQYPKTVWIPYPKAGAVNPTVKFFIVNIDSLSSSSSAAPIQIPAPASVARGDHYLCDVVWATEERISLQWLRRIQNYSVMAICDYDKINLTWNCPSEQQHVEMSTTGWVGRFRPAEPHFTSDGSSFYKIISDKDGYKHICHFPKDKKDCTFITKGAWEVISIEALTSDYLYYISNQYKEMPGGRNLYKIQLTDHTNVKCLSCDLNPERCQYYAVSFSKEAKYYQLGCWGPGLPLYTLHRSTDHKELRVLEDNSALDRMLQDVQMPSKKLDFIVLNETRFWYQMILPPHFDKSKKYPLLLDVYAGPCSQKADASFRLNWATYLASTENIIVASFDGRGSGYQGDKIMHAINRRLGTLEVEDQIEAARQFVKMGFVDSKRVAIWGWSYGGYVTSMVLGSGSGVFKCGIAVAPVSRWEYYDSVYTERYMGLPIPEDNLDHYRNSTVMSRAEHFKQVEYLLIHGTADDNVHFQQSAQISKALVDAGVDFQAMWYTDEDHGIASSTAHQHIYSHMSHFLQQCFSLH

For `COC(=O)c1cc2nc(N3CCC[C@@H](N)C3)n(Cc3ccccc3C#N)c(=O)c2s1` [Formula I, (R)-methyl-2-(3-aminopiperidin-1-yl)-3-(2-cyanobenzyl)-4-carbonyl-3,4-dihydroth iophene[3,2-d] pyrimidine-6-carboxylic acid], the “type of DPP IV inhibition” value on DPP IV [1] is “selective and reversible competitive”. Besides, the inhibitory activity entry on DPP IV [1] (in vitro) is listed as “nanomolar level”. On DPP IV [1] (in vitro, versus listed drugs sitagliptin and vildagliptin), the “inhibitory activity and selectivity in vitro compared with sitagliptin and vildagliptin” value is recorded as “superior”. The “DPP IV activity in plasma” value at DPP IV [2] and on DPP IV [3] was “effectively inhibit” each time. The “DPP IV inhibitory activity compared with alogliptin” value at DPP IV [2] (versus alogliptin) and at DPP IV [3] (versus alogliptin) was “superior” in each case. In the data set with normal ICR mice (dose-dependent), the “effective dose for increasing oral glucose tolerance” value is 0.1 mg/kg. Also, in the data set with normal ICR mice (versus alogliptin), the “effect on oral glucose tolerance compared with alogliptin” value was “superior”. The fasting blood glucose entry with ob/ob mice is reported as “effectively reduce”; in data set [4] it was “can reduce”. Further, the “fasting blood glucose reduction compared with alogliptin” value in the data set on ob/ob mice (setting [12]) is “superior”; in data set [4] (setting [12]) it was “comparable”. Further, the “AUC0-t compared with alogliptin” value in data set [5] and in data set [6] was “superior” each time. Also, the “half-life compared with alogliptin” value in data set [5] and in data set [6] was “superior” throughout. For the same molecule, the “death in acute toxicity test” value in the data set on ICR mice is recorded as “no death”. Further, the “toxicity in subacute toxicity test” value in the data set with Rat was “no obvious toxicity”.
As to `COC(=O)c1cc2nc(N3CCC[C@@H](N)C3)n(Cc3ccccc3C#N)c(=O)c2s1` [crystal form A, (R)-methyl-2-(3-aminopiperidin-1-yl)-3-(2-cyanobenzyl)-4-carbonyl-3,4-dihydrothiop hene[3,2-d] pyrimidine-6-carboxylic acid], the hygroscopicity entry in [7] is recorded as “less than 1%”; in data set [7] (relative humidity RH less than 50%), “less than 0.3%”. Besides, the moisture content in [7] (40% RH) is 0.26%. The moisture absorbed in data set [7] (65% RH) amounted to 0.42%; in data set [7] (80% RH) it was 0.57%. Also, in data set [7] (FIG. 5, crystal of Example 1), the “hygroscopicity (DVS)” value is listed as “slight hygroscopicity”. Further, the “variation range of humidity” value in data set [7] (range of conventional storage humidity) is listed as “smaller than 2.0%”. Moreover, the “hypoglycemic activity compared with amorphous powder” value in data set [8] is recorded as “better”. Also, in [9], the “solubility compared with amorphous powder” value is reported as “improve solubility”. In addition, the “oral absorption ability compared with amorphous powder” value in data set [10] is “enhance oral absorption ability”. The “stability, in particular thermal stability” value in data set [11] (compared with the prior art) is “better stability”. Besides, the degradability entry in data set [11] (conventional conditions) is given as “not easily degradable”.
